Patent US10653144B2, “Pesticidal and parasiticidal vinyl isoxazoline compounds” (BOEHRINGER INGELHEIM ANIMAL HEALTH USA INC., priority 2016, dated 2020)

tested on: A. aegypti L1 larvae; experiment: A. aegypti L1 larvae motility dose response assay; settings: Aedes aegypti, 48 h, diluted LB media, 25° C., motility vs DMSO control wells
Experimental: Efficacy of Compounds Against A. aegypti Mosquitos Compounds were formulated in 100% DMSO are added to microtiter plates containing 180 μl of diluted LB media (Luria-Bertani media is a combination of tryptone, salt and yeast extract). Ten A. aegypti L1 larvae are added and the plates are incubated at 25° C. for 48 h. The efficacy of a compound is determined based on the motility of the larvae as compared to average motility of control wells containing DMSO only. A dose response assay was conducted to determine an EC50 value.

Row | SMILES | EC50
1 | O=C(CNC(=O)c1ccc(/C=C/C2=NOC(c3cc(Cl)cc(C(F)(F)F)c3)(C(F)(F)F)C2)c2ccccc12)NCC(F)(F)F (stereo not shown) [Compound 1, 2-([4-[2-[5-[3-chloro-5-(trifluoromethyl)phenyl]-5-(trifluoromethyl)-4,5-dihydro-1,2-oxazol-3-yl]ethenyl]naphthalen-1-yl]formamido)-N-(2,2,2-trifluoroethyl)acetamide] | ≤ 20 µM
2 | O=C(NCCC(F)(F)F)c1ccc(/C=C/C2=NOC(c3cc(Cl)cc(C(F)(F)F)c3)(C(F)(F)F)C2)n2cncc12 (stereo not shown) [Compound 6, 5-[2-[5-[3-chloro-5-(trifluoromethyl)phenyl]-5-(trifluoromethyl)-4,5-dihydro-1,2-oxazol-3-yl]ethenyl]-N-(3,3,3-trifluoropropyl)imidazo[1,5-a]pyridine-8-carboxamide] | ≤ 20 µM
3 | O=C(NCCC(F)(F)F)c1ccc(/C=C/C2=NOC(c3cc(Cl)cc(C(F)(F)F)c3)(C(F)(F)F)C2)c2ccccc12 (stereo not shown) [Compound 2, 4-[2-[5-[3-chloro-5-(trifluoromethyl)phenyl]-5-(trifluoromethyl)-4,5-dihydro-1,2-oxazol-3-yl]ethenyl]-N-(3,3,3-trifluoropropyl)naphthalene-1-carboxamide] | ≤ 20 µM
4 | O=C(CNC(=O)c1ccc(/C=C/C2=NOC(c3cc(Cl)cc(C(F)(F)F)c3)(C(F)(F)F)C2)n2cncc12)NCC(F)(F)F (stereo not shown) [Compound 5, 2-([5-[2-[5-[3-chloro-5-(trifluoromethyl)phenyl]-5-(trifluoromethyl)-4,5-dihydro-1,2-oxazol-3-yl]ethenyl]imidazo[1,5-a]pyridin-8-yl]formamido)-N-(2,2,2-trifluoroethyl)acetamide] | ≤ 20 µM
